Values quoted from earlier work, collected in patent US20220000962A1, “PLANT-BASED BIOLOGICALLY ACTIVE SUBSTANCE HAVING A POLYPHARMACOLOGICAL EFFECT” (priority 2015, published 2022).

Test system: CMV
Conditions: tricin obtained from Sasa albo-marginata

**Q.** Which “concentration which inhibits development of CMV infection on the cellular level for 50%” value does the source give for `COc1cc(-c2cc(=O)c3c(O)cc(O)cc3o2)cc(OC)c1O` [tricin, 5,7,4-trihydroxy-3′,5′-dimethoxyflavone] here?
**A.** 0.139 µg/mL

**Q.** What about the IC50 (read-out: concentration which inhibits development of CMV infection on the cellular level for 50%) of the same compound?
**A.** 420 nM
